Assay results: PMC3237907 (Nano letters, 2011)

Target: T1, ParM mutant (His6/K33A/D63C/T174A/T175N/D224C/C287A), TMR-labelled ADP sensor (Escherichia coli, UniProt P11904, C287A/D224C/D63C/K33A/T174A/T175N)
T1 sequence (P11904 1-320 K33A/D63C/T174A/T175N/D224C/C287A): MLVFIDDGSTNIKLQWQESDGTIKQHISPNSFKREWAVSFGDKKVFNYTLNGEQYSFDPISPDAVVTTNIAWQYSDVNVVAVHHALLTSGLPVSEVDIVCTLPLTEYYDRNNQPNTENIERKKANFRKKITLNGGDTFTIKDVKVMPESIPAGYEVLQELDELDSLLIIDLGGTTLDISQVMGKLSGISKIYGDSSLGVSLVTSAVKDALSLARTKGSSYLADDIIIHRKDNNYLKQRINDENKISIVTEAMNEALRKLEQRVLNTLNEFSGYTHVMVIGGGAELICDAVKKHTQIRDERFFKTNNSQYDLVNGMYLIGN
Assay: single-molecule TIRF, TMR self-quenching
Format: binding

## Nc1ncnc2c1ncn2[C@@H]1O[C@H](COP(=O)(O)OP(=O)(O)O)[C@@H](O)[C@H]1O [ADP]
  Kd: 20 ± 3 µM
